The record followed here is ChEMBL document CHEMBL1268904, “Potent and selective HIV-1 ribonuclease H inhibitors based on a 1-hydroxy-1,8-naphthyridin-2(1H)-one scaffold” (Bioorg Med Chem Lett, 2010).

What is called IC50 is the midpoint of a concentration-inhibition curve. Broadly, the logP is the decadic logarithm of the partition coefficient of the neutral form, usually between octanol and water. Read a high logP as a more lipophilic compound. A word on the IC95: it is the point of the concentration-response curve where the effect stands at 95%. The CC50 is the concentration at which the toxic effect on the cells reaches its halfway point.

In data set [1] the target is Human immunodeficiency virus type 1 integrase (Human immunodeficiency virus 1, UniProt Q7ZJM1). The data set is described as follows: Inhibition of HIV1 integrase strand transfer activity.
Data set [2] in a line: Lipophilicity, log P of the compound. In kind it is physicochemical. The note with it: octanol/water.
Data set [3] deals with Human immunodeficiency virus 1. The data set is described as follows: Selectivity ratio of IC50 for HIV1 integrase Q148R mutant strand transfer activity to IC50 for HIV1 integrase strand transfer activity.
Data set [4] relates to Human immunodeficiency virus 1. The data set is described as follows: Selectivity ratio of IC50 for HIV1 integrase N155H mutant strand transfer activity to IC50 for HIV1 integrase strand transfer activity.
Data set [5] can be described thus: Inhibition of HIV1 reverse transcriptase D443N mutant RNA-dependent DNA plymerase activity. Set-up: species or system Human immunodeficiency virus 1.
Data set [6] concerns Human immunodeficiency virus 1. The data set is described as follows: Selectivity ratio of IC50 for HIV1 integrase Y143R mutant strand transfer activity to IC50 for HIV1 integrase strand transfer activity.
For data set [7], the system named is MT4. Kind of data set: Cytotoxicity against human MT4 cells at 1.5 uM. Type of data set: cell-based. The note with it: mt4, 1.5 µM.
Data set [8] deals with Human immunodeficiency virus 1. The data set is described as follows: Antiviral activity against HIV1 3B infected in human MT4 cells assessed as decrease in viral p24 antigen level after 14 to 21 days. In kind it is functional. Particulars: Human immunodeficiency virus 1, 3B.
Data set [9] concerns Human immunodeficiency virus 1. The data set is described as follows: Antiviral activity against HIV1 HXB2 infected in human HeLaP4-2 cells assessed as inhibition of single-cycle viral replication. Type of data set: functional, organism-based. The note with it: Human immunodeficiency virus 1, HXB2, HeLaP4-2.
For data set [10], the target named is Human immunodeficiency virus type 1 reverse transcriptase (Human immunodeficiency virus 1, UniProt Q72547). The data set is described as follows: Inhibition of wild type HIV1 reverse transcriptase RNasH activity.
Data set [11] in a line: Cytotoxicity against human HeLaP4-2 cells by alamar blue assay. In kind it is cell-based. For orientation: The colour change of resazurin is a common sign of viable cells or microbes.
Data set [12] in a line: Therapeutic index, ratio of CC50 for human HeLaP4-2 cells to IC50 for HIV1 HXB2 infected in human HeLaP4-2 cells. Type of data set: cell-based. The note with it: HeLaP4-2 cells infected with HIV1 HXB2, read-out: Ratio CC50/IC50.
Data set [13] concerns Human immunodeficiency virus 1. The data set is described as follows: Selectivity ratio of IC50 for HIV1 integrase strand transfer activity to IC50 for wild type HIV1 reverse transcriptase RNasH activity.
For data set [14], the system named is Human immunodeficiency virus 1. Kind of data set: Selectivity ratio of IC50 for HIV1 reverse transcriptase D443N mutant RNA-dependent DNA plymerase activity to IC50 for wild type HIV1 reverse transcriptase RNasH activity.
The nature of data set [15]: Cytotoxicity against human HeLaP4-2 cells up to 50 uM by alamar blue assay. In kind it is cell-based.

Chain of Human immunodeficiency virus type 1 integrase (Q7ZJM1 whole entry): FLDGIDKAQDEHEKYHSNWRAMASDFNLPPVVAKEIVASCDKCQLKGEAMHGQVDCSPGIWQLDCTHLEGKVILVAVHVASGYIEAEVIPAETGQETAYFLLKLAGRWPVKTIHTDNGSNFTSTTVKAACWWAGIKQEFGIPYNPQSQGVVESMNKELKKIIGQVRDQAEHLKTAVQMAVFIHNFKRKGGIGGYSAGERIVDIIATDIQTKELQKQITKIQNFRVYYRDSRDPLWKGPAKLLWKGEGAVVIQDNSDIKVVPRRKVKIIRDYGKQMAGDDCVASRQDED

As to `NCc1ccc(-c2ccc(Cc3cc(=O)n(O)c4ncccc34)cc2)cc1`, the IC50 in [1] was 24 µM; in data set [5], 13 µM; in [9] it was 0.19 µM; in [10], 0.045 µM. For the same compound, in [2], the lipophilicity (logP) amounted to 0.15. Further, the Ratio IC50 in data set [3] was found to be 1.9; in [4], 1.1; in data set [6], 0.84. For the same compound, the Activity entry in data set [7] is recorded as “Non-toxic”. In addition, in data set [8], the IC95 is 0.92 µM. Also, in [11], it took 3.3 µM to reach half-maximal cytotoxicity (CC50). In addition, the selectivity ratio in data set [12] is 17.

As to `NCc1ccc(-c2cccc(Cc3cc(=O)n(O)c4ncccc34)c2)cc1`, the IC50 was determined as 8.1 µM in data set [1], 11 µM in data set [5], 0.43 µM in data set [9] and 0.1 µM in data set [10]. Moreover, half-maximal cytotoxicity in data set [11] (CC50) was put at 4.6 µM. Besides, the selectivity ratio in data set [12] amounted to 11.

With `NCc1ccccc1-c1cccc(-c2cc(=O)n(O)c3ncccc23)c1`, the IC50 in data set [1] was 18 µM; in [5], 36 µM; in data set [9] it was 2.8 µM; in data set [10], 0.67 µM. This compound also returned a CC50 in data set [11] of 9.1 µM. For the same compound, in [12], the selectivity ratio came to 3.

As to `O=c1ccc2cccnc2n1O`, the IC50 in [1] is 15 µM; in [5], more than 50 µM; in data set [9] it was 4.5 µM; in data set [10], 1.4 µM. The CC50 in data set [11] stood at 20 µM. Further, the Ratio IC50 turned out to be 10 in [13] and 30 in data set [14]. Also, in [12], the selectivity ratio is 4.

On to `NCc1ccc(-c2cccc(-c3cc(=O)n(O)c4ncccc34)c2)cc1`, for which the IC50 is 7.8 µM in data set [1], 16 µM in [5], 0.62 µM in [9] and 0.13 µM in [10]. For the same compound, in data set [11], the CC50 turned out to be 2.3 µM. Besides, the selectivity ratio in [12] came to 3.

`CCOC(=O)c1c(O)c2cccnc2n(O)c1=O`: in data set [2], the logP was 2.2. For the same compound, in data set [15], the Activity result is “Non-toxic”. The IC50 turned out to be 2.5 µM in data set [9] and 0.11 µM in [10].

With `O=c1cc(-c2cccc(-c3ccccc3)c2)c2cccnc2n1O`, the IC50 in data set [1] turned out to be 2.4 µM; in [5] it was 9 µM; in data set [9], 34 µM; in data set [10], 0.64 µM. The same compound registered a CC50 in data set [11] of more than 50 µM.

On to `NCc1cccc(-c2cccc(-c3cc(=O)n(O)c4ncccc34)c2)c1`, for which the IC50 in [1] is 9.1 µM; in data set [5], 5.1 µM; in data set [9], 0.85 µM; in data set [10], 0.15 µM. The same compound yielded a CC50 in data set [11] of 4.9 µM. Also, the selectivity ratio in data set [12] was 3.
